Assay results from patent US9006257B2, “Bicyclic compounds as mPGES-1 inhibitors” (Glenmark Pharmaceuticals S.A., priority 2012, dated 2015).

Biological target: T1, Recombinant human mPGES-1 (Homo sapiens, UniProt O14684)
T1 construct: made in house; host or cells: CHO cells
T1 sequence (O14684 1-152): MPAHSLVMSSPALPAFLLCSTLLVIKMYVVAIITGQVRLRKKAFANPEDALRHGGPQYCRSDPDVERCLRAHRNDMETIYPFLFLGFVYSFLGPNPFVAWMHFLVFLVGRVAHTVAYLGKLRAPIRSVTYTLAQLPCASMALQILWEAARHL
Assay: In-vitro mPGES-1 inhibitor screening (inhibition of PGE2 formation from PGH2, HTRF detection)
Assay type: biochemical
Conditions: for inhibition at 1 µM: 1 μM test compound, read-out: Percentage inhibition at 1 μM; for inhibition at 1 µM / inhibition at 10 µM: crude microsomal fraction, 15 μM PGH2; for inhibition at 10 µM: 10 μM test compound, read-out: Percentage inhibition at 10 μM; for IC50: class symbol, concentration response curve
From the text: In-Vitro Protocol for Screening of mPGES-1 Inhibitors:
mPGES-1 (microsomal prostaglandin E synthase-1) is a microsomal enzyme that converts endoperoxide substrate PGH2 (prostaglandin H2) to product PGE2 (prostaglandin E2) by isomerization in the presence of reduced glutathione (GSH). mPGES-1 inhibitors were screened by assessing their ability to inhibit formation of PGE2 from PGH2 in presence of mPGES-1 using an anti-PGE2 antibody based detection method. Recombinant human mPGES-1 was generated in-house by expression in CHO cells (Ouellet M et al. (2002), Protein Expression and Purification 26: 489-495). The assay was set up using crude microsomal fractions at protein concentration of 40-60 μg/mL. Test compounds were prepared in 100% dimethyl sulfoxide (DMSO) to obtain 20 mM stock solution and then diluted using assay buffer comprising 0.1 M Potassium phosphate buffer with 2 mM EDTA. The final concentration of DMSO in reaction was 0.5% (v/v). Negative controls were comprised of all assay reagents except the enzyme. Positive controls were comprised of the enzyme reaction in the absence of any inhibitor. Test compounds were incubated for 10 minutes in assay buffer containing 2.5 mM GSH and mPGES-1 enzyme followed by addition of PGH2 at a concentration of 15 μM for 1 minute. The reaction was stopped by addition of Stannous chloride (11 mg/ml) and PGE2 levels were measured (Masse F et al. (2005), Journal of Biomolecular Screening 10(6) 599-605., Goedken R E et al. (2008), Journal of Biomolecular Screening 13(7): 619-625) by HTRF kit (CisBio)).
Inhibition of mPGES-1 enzyme activity was measured using the percent of reaction occurring in the positive control. Concentration response curves were plotted using percent inhibition of maximum enzyme reaction. The IC50 value was calculated from the concentration response curve by nonlinear regression analysis using GraphPad PRISM software.

| Structure (SMILES) | inhibition at 1 µM [%] | inhibition at 10 µM [%] | IC50 [nM] |
| --- | --- | --- | --- |
| CC(C)C(=O)NCc1cnc(C(F)F)c(C(=O)Nc2cccc3c(NCC(F)(F)F)ncnc23)c1 [Example-78, 2-(Difluoromethyl)-5-(isobutyramidomethyl)-N-(4-((2,2,2-trifluoroethyl)amino)quinazolin-8-yl)nicotinamide] | 83.3 | 94.8 | < 50 |
| Cc1ccc2c(Nc3cccc(C(F)(F)F)c3)ncnc2c1NC(=O)c1c(Cl)ccc(CNC(=O)C(C)(C)C)c1F [Example-42, 6-Chloro-2-fluoro-N-(7-methyl-4-((3-(trifluoromethyl)phenyl)amino)quinazolin-8-yl)-3-(pivalamidomethyl)benzamide] | 96.5 | 99.6 | < 50 |
| CC(C)(C)C(=O)NCc1ccc(Cl)c(C(=O)Nc2cccc3c(O[C@H]4CC[C@H](C(F)(F)F)CC4)nccc23)c1 [Example-38, 2-Chloro-5-(pivalamidomethyl)-N-(1-(((1r,4r)-4-(trifluoromethyl)cyclohexyl)oxy)isoquinolin-5-yl)benzamide] | 99.3 | 99.9 | < 50 |
| Cc1nc(N2CCOCC2)c2cccc(NC(=O)c3c(Cl)ccc(CNC(=O)C(C)(C)C)c3F)c2n1 [Example-58, 6-Chloro-2-fluoro-N-(2-methyl-4-morpholinoquinazolin-8-yl)-3-(pivalamidomethyl)benzamide] | 51.3 | 93.4 | – |
| CC(C)C(=O)NCc1cnc(C(F)F)c(C(=O)Nc2cccc3c(NC(C)(C)C)ncnc23)c1 [Example-75, N-(4-(tert-Butylamino)quinazolin-8-yl)-2-(difluoromethyl)-5-(isobutyramidomethyl)nicotinamide] | 93.6 | 98.3 | < 50 |
| CC(C)(C)C(=O)NCc1ccc(Cl)c(C(=O)Nc2cccc3c(O[C@H]4CC[C@H](C(F)(F)F)CC4)nccc23)c1F [Example-50, 6-Chloro-2-fluoro-3-(pivalamidomethyl)-N-(1-(((1r,4r)-4-(trifluoromethyl)cyclohexyl)oxy)isoquinolin-5-yl)benzamide] | 99.2 | 99.6 | < 50 |
| CC(C)(C)C(=O)NCc1ccc(Cl)c(C(=O)Nc2cccc3c(Oc4cccc(C(F)(F)F)c4)ccnc23)n1 [Example-17, 3-Chloro-6-(pivalamidomethyl)-N-(4-(3-(trifluoromethyl)phenoxy)quinolin-8-yl)picolinamide] | 94.3 | 93.9 | < 50 |
| CC(C)(C)C(=O)NCc1ccc(Cl)c(C(=O)Nc2cccc3c(Oc4ccc(F)c(C(F)(F)F)c4)ccnc23)c1F [Example-51, 6-Chloro-2-fluoro-N-(4-(4-fluoro-3-(trifluoromethyl)phenoxy)quinolin-8-yl)-3-(pivalamidomethyl)benzamide] | 99.3 | 99.7 | < 50 |
| CC(C)(C)C(=O)NCc1ccc(Cl)c(C(=O)Nc2cccc3c(Oc4cccc(C(F)(F)F)c4)ncnc23)c1F [Example-11, 6-Chloro-2-fluoro-3-(pivalamidomethyl)-N-(4-(3-(trifluoromethyl)phenoxy)quinazolin-8-yl)benzamide] | 97.4 | 90.7 | < 50 |
| CC(C)(C)C(=O)NCc1ccc(Cl)c(C(=O)Nc2cccc3c(O[C@H]4CC[C@H](C(F)(F)F)CC4)ncnc23)c1 [Example-39, 2-Chloro-5-(pivalamidomethyl)-N-(4-(((1r,4r)-4-(trifluoromethyl)cyclohexyl)oxy)quinazolin-8-yl)benzamide] | 98 | 99.5 | < 50 |
| CC(C)(C)C(=O)NCc1ccc(Cl)c(C(=O)Nc2cccc3c(Oc4cccc(C(F)(F)F)c4)ccnc23)c1 [Example-16, 2-Chloro-5-(pivalamidomethyl)-N-(4-(3-(trifluoromethyl)phenoxy)quinolin-8-yl)benzamide] | 99 | 99.6 | < 50 |
| CC(C)(C)Nc1ncnc2c(NC(=O)c3cc(CNC(=O)C(C)(C)C)c(F)cc3Cl)cccc12 [Example-71, N-(4-(tert-Butylamino)quinazolin-8-yl)-2-chloro-4-fluoro-5-(pivalamidomethyl)benzamide] | 100 | 97.3 | < 50 |
| CC(C)(C)C(=O)NCc1ccc(Cl)c(C(=O)Nc2cccc3c(Nc4cccc(C(F)(F)F)c4)ccnc23)c1F [Example-31, 6-Chloro-2-fluoro-3-(pivalamidomethyl)-N-(4-((3-(trifluoromethyl)phenyl)amino)quinolin-8-yl)benzamide] | 98.7 | 98.7 | < 50 |
| CC1(C)CCC(Oc2nccc3c(NC(=O)c4c(Cl)ccc(CNC(=O)C(C)(C)C)c4F)cccc23)CC1 [Example-35, 6-Chloro-N-(1-((4,4-dimethylcyclohexyl)oxy)isoquinolin-5-yl)-2-fluoro-3-(pivalamidomethyl)benzamide] | 100 | 100 | < 50 |
| CC(C)(C)C(=O)NCc1ccc(Cl)c(C(=O)Nc2cccc3c(Oc4cccc(C(F)(F)F)c4)nccc23)n1 [Example-6, 3-Chloro-6-(pivalamidomethyl)-N-(1-(3-(trifluoromethyl)phenoxy)isoquinolin-5-yl)picolinamide] | 93 | 95.9 | 50 to 100 |
| CC(C)(C)C(=O)NCc1ccc(Cl)c(C(=O)Nc2cccc3cccnc23)c1F [Example-55, 6-Chloro-2-fluoro-3-(pivalamidomethyl)-N-(quinolin-8-yl)benzamide] | 94.1 | 99.8 | < 50 |
| CC(C)(C)Nc1ncnc2c(NC(=O)c3c(Cl)ccc(CNC(=O)C(C)(C)CO)c3F)cccc12 [Example-69, N-(4-(tert-Butylamino)quinazolin-8-yl)-6-chloro-2-fluoro-3-((3-hydroxy-2,2-dimethylpropanamido)methyl)benzamide] | 84.9 | 98.2 | < 50 |
| Cc1nc(NC2CCC(C)(C)CC2)c2cccc(NC(=O)c3c(Cl)ccc(CNC(=O)C(C)(C)C)c3F)c2n1 [Example-54, 6-Chloro-N-(4-((4,4-dimethylcyclohexyl)amino)-2-methylquinazolin-8-yl)-2-fluoro-3-(pivalamidomethyl)benzamide] | 98.2 | 97.3 | < 50 |
| CC(C)(C)C(=O)NCc1ccc(Cl)c(C(=O)Nc2cccc3c(O[C@H]4CC[C@@H](C(F)(F)F)CC4)nccc23)c1 [Example-47, 2-Chloro-5-(pivalamidomethyl)-N-(1-(((1s,4s)-4-(trifluoromethyl)cyclohexyl)oxy)isoquinolin-5-yl)benzamide] | 85.1 | 97.7 | > 100 |
| CC(C)(C)C(=O)NCc1ccc(Cl)c(C(=O)Nc2cccc3c(Nc4cccc(C(F)(F)F)c4)ncnc23)c1F [Example-12, 6-Chloro-2-fluoro-3-(pivalamidomethyl)-N-(4-((3-(trifluoromethyl)phenyl)amino)quinazolin-8-yl)benzamide] | 99.4 | 99.7 | < 50 |
